Assay results reported in patent US20250115926A1, “DEREGULATED DHS AND TYRA ENZYMES OF GRASSES ENABLE EFFICIENT PRODUCTION OF BOTH TYROSINE AND PHENYLALANINE” (Wisconsin Alumni Research Foundation, priority 2023, published 2025).
Values joined by “and” are separate entries in the source; they are usually repeats but may differ in a detail not shown here. Identical values can stand only once. Counter-ions that a name gives are not always drawn.

Legend:
[1] = target: T1, Brachypodium distachyon BdTyrAnc (non-canonical TyrA), SEQ ID NO: 37, recombinant (Brachypodium distachyon, UniProt I1GYB3); assay: TyrA arogenate dehydrogenase kinetics and tyrosine inhibition (340 nm); assay type: biochemical; conditions: arogenate and NADP^+
T1 construct: from cDNA
T1 sequence (I1GYB3 58-361): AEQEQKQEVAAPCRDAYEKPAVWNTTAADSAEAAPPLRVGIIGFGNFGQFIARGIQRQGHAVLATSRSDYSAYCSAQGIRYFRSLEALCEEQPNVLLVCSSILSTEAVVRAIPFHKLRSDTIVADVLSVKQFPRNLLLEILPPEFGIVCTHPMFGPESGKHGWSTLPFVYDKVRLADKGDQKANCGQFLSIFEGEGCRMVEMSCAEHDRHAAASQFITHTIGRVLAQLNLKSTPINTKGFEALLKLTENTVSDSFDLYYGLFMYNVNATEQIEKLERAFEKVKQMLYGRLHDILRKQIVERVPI
Text: (§1) Next, to study the biochemical properties of grass TyrA enzymes, we generated and characterized recombinant purified TyrA proteins from Brachypodium (BdTyrA) and Sorghum (SbTyrA), two distantly related grass species^43, 44. Whereas TyrA enzymes from dicot plants are generally NADP^+-dependent arogenate dehydrogenases^20, 39, 45, except for NADP^+-prephenate dehydrogenases in the legume family^40, 46, previous reports on the substrate preference of grass TyrA enzymes are inconclusive^17, 19. […] NAD^+-prephenate dehydrogenase activity was absent in all cases, ruling out a significant contamination of the enzyme preparations with the TyrA enzyme from E. coli^47.48.

[2] = target: T2, Sorghum bicolor SbTyrAnc (non-canonical TyrA), SEQ ID NO: 43, recombinant (Sorghum bicolor, UniProt C5Z447); assay: as above; assay type: biochemical; conditions: arogenate and NADP^+
T2 construct: from cDNA
T2 sequence (C5Z447 56-382): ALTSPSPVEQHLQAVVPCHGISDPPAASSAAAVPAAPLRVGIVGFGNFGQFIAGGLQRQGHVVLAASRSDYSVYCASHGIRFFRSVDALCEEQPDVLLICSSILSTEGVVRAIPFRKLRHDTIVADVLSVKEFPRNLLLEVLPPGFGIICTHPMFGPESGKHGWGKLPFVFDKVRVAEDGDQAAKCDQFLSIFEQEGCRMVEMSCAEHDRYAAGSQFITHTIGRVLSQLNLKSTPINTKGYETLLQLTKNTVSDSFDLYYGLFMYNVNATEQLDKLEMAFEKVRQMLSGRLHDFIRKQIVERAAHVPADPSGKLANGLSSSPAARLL
Text: as §1

[3] = target: Brachypodium distachyon BdDHS1a, SEQ ID NO: 1, recombinant (Brachypodium distachyon, UniProt I1GSB3); assay: DHS activity: kinetics and effector inhibition
Text: (§2) To examine their functional properties, the recombinant DHS enzymes of Brachypodium were produced and characterized in vitro.
(§3) As recent studies have shown that plant DHS enzymes are feedback-inhibited by multiple effector molecules^15, 16, we tested the effect of AAAs and another 14 related metabolites, including various intermediates of the shikimate pathway and the pathways downstream of AAAs, on Brachypodium DHS enzymes.
(§4) The DHS assay for UHPLC-MS quantification was set up using the same settings as described in the previous paragraph for the UV-based DHS assay, which guaranteed at least 10 minutes of reaction linearity. After a 10-minute incubation, 20 μL of the reactions (out of a total volume of 50 μL) were mixed into 80 μL of methanol, vortexed and transferred to vials for injection. Analysis of DAHP by UHPLC-MS was conducted using the same chromatographic settings as described for the UHPLC-MS analysis of soluble metabolites and compared with an authentic DAHP standard (Sta. Cruz biotechnology, cat. no. sc-216432).

[4] = target: Brachypodium distachyon BdDHS1b, SEQ ID NO: 3, recombinant (Brachypodium distachyon, UniProt I1H4W3); assay: DHS activity: kinetics and effector inhibition; assay type: biochemical
Text: as §2, §3, §4

[5] = target: Brachypodium distachyon BdDHS2, SEQ ID NO: 5, recombinant (Brachypodium distachyon, UniProt I1I809); assay: DHS activity: kinetics and effector inhibition; assay type: biochemical
Text: as §2, §3, §4

[6] = target: Sorghum bicolor SbDHS1a, SEQ ID NO: 9, recombinant (Sorghum bicolor, UniProt C5X2H5); assay: DHS activity: effector inhibition; assay type: biochemical; conditions: effector 0.5 mM
Description: (§5) In contrast, BdDHS1b was not inhibited by arogenate even up to 2.5 mM. In fact, DHS1b activity increased in the presence of high concentrations of arogenate (FIG. 4F), likely due to high concentrations of contaminant NaCl present in the arogenate preparation (FIG. 16). Under acidic conditions, arogenate is known to undergo a spontaneous dehydration and decarboxylation into […]. […] Like in Brachypodium DHS enzymes, 0.5 mM arogenate inhibited SbDHS1a and SbDHS2 at ˜50% and ˜40%, respectively, but had no effect on SbDHS1b.

[7] = target: Sorghum bicolor SbDHS1b, SEQ ID NO: 11, recombinant (Sorghum bicolor, UniProt C5WXQ3); assay: DHS activity: effector inhibition; assay type: biochemical; conditions: effector 0.5 mM
Description: as §5

[8] = target: T3, Sorghum bicolor SbDHS2, SEQ ID NO: 13, recombinant (Sorghum bicolor, UniProt C5YJQ4); assay: DHS activity: effector inhibition; assay type: biochemical; conditions: effector 0.5 mM
T3 construct: pET28a (NdeI/BamHI), E. coli KRX
Description: as §5

[9] = tested on: Brachypodium distachyon DHS enzymes (BdDHS1a, BdDHS1b, BdDHS2); assay: DHS activity: kinetics and effector inhibition, three isoforms together; assay type: biochemical; conditions: arogenate treated with 1N HCl for 30 minutes (FIG. 16A)
Text: as §2, §3, §4

[10] = target: Arabidopsis thaliana AtDHS2 (Arabidopsis thaliana, UniProt Q00218); assay: DHS inhibition assay with hydrolyzed arogenate; assay type: biochemical; conditions: arogenate treated with 1N HCl for 30 minutes (FIG. 16A)
Arabidopsis thaliana AtDHS2, sequence (Q00218 2-507): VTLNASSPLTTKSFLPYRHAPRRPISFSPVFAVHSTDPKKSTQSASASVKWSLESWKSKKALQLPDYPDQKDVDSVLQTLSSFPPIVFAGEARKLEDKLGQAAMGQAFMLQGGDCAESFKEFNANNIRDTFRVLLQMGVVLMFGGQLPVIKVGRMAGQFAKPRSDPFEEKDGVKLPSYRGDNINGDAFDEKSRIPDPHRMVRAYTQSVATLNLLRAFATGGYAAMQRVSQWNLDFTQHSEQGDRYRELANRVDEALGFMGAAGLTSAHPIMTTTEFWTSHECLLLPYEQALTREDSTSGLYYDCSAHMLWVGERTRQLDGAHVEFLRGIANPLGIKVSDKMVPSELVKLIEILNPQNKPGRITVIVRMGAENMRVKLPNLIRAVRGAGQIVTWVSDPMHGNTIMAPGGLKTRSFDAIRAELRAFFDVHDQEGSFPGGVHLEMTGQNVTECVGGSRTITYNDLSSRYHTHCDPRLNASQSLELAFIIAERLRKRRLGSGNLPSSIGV

Brachypodium distachyon BdDHS1a, SEQ ID NO: 1, recombinant, sequence (I1GSB3 46-537): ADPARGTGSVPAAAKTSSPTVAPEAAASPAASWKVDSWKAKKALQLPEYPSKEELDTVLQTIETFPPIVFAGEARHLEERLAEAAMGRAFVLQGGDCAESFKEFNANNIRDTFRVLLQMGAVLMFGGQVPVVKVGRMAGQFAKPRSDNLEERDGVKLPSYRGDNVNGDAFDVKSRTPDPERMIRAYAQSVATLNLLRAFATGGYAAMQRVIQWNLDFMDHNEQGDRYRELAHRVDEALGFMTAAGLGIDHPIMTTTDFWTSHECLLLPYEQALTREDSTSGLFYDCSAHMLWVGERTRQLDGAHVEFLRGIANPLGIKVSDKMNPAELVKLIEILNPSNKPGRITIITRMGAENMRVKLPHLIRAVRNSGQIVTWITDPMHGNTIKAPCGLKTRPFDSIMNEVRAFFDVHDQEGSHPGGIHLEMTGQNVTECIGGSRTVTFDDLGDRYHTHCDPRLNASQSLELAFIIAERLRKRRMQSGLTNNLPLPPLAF
Brachypodium distachyon BdDHS2, SEQ ID NO: 5, recombinant, sequence (I1I809 31-503): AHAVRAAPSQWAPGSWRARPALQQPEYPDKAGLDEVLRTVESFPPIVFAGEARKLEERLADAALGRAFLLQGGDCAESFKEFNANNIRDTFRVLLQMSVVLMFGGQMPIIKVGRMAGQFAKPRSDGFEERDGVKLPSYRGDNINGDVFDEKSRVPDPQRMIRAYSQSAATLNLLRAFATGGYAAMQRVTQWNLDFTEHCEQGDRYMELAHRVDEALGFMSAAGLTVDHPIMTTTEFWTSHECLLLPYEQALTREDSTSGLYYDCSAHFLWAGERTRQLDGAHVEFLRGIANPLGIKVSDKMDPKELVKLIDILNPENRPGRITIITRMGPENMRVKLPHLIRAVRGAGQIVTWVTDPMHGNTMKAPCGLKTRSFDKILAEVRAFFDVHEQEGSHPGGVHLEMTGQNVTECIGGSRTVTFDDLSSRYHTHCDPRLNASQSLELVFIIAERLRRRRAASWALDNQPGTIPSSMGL
Brachypodium distachyon BdDHS1b, SEQ ID NO: 3, recombinant, sequence (I1H4W3 37-542): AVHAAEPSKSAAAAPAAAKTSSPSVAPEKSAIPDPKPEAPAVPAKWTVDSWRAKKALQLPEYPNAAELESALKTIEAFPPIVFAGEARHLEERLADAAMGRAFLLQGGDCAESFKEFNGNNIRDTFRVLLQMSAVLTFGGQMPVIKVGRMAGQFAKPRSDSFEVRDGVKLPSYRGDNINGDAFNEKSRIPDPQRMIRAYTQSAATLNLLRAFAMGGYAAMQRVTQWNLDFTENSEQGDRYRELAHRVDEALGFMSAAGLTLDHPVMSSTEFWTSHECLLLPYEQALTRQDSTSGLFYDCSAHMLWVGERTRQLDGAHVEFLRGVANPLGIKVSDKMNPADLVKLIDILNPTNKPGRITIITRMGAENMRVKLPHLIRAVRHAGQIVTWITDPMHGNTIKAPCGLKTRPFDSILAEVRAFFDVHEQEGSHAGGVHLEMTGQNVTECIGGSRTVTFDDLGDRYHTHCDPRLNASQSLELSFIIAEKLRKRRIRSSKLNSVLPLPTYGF
T3 sequence (C5YJQ4 42-508): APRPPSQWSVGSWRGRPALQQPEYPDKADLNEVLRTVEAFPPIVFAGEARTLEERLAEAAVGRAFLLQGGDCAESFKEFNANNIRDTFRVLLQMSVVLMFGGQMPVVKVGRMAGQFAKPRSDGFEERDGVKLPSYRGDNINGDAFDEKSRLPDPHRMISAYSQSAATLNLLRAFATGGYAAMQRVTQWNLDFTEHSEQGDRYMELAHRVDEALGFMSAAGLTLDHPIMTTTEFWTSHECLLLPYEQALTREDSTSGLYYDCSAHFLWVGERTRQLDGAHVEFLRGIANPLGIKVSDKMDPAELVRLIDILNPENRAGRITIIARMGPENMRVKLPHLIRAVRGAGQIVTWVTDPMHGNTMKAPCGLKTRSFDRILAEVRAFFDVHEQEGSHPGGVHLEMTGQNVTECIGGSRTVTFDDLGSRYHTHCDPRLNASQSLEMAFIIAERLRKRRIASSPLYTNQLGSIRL
Sorghum bicolor SbDHS1b, SEQ ID NO: 11, recombinant, sequence (C5WXQ3 48-551): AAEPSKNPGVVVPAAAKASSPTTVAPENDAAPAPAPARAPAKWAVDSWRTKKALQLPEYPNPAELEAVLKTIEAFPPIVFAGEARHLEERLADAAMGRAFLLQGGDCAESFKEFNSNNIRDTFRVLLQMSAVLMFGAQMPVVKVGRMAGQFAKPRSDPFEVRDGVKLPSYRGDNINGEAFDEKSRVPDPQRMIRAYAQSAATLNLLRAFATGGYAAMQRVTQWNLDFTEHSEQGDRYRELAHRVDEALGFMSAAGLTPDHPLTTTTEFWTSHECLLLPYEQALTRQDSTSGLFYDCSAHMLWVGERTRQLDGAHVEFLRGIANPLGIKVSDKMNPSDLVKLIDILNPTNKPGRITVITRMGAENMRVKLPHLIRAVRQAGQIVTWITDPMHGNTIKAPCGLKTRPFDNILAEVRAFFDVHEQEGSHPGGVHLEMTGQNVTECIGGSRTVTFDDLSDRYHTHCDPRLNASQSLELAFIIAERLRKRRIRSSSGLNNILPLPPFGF
Sorghum bicolor SbDHS1a, SEQ ID NO: 9, recombinant, sequence (C5X2H5 46-540): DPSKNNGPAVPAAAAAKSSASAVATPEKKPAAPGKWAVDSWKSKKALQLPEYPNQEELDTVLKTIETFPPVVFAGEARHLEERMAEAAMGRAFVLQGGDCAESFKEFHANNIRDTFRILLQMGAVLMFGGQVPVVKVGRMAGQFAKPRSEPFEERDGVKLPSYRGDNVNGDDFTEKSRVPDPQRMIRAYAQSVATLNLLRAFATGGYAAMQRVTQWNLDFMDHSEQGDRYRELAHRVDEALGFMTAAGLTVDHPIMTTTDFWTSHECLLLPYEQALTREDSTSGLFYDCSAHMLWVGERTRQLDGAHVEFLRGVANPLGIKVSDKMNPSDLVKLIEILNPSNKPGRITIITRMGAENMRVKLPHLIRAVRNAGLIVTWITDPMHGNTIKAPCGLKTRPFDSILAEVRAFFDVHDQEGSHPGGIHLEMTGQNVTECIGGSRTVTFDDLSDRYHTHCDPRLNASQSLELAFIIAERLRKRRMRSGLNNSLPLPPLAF

Row | inhibition by hydrolyzed arogenate [9] | inhibition by hydrolyzed arogenate ([9]; listed as Arogenate that is hydrolyzed to phenylalanine) | inhibition by hydrolyzed arogenate [10] | SMILES | kcat/Km [1] | kcat/Km [2] | IC50 ([3]; IC50 (arogenate), 1.5 mM PEP, 2 mM E4P) | inhibition at 500 µM ([3]; read-out: inhibition at 0.5 mM) | inhibition by arogenate up to 2.5 mM ([4]; even up to 2.5 mM) | IC50 ([4]; read-out: IC50 (arogenate)) | IC50 ([5]; 1.5 mM PEP, 2 mM E4P, read-out: IC50 (arogenate)) | mode of inhibition with respect to E4P ([5]; FIG. 18) | mode of inhibition with respect to PEP ([5]; FIG. 18) | inhibition at 500 µM ([5]; effector 0.5 mM, read-out: inhibition at 0.5 mM) | inhibition at 500 µM [6] | effect at 0.5 mM [7] | inhibition at 500 µM [8]
1 | – | – | – | N[C@@H](CC1(C(=O)O)C=CC(O)C=C1)C(=O)O (stereo partly shown) [arogenate] | 579600 ± 24300 M⁻¹ s⁻¹ | 337500 ± 19500 M⁻¹ s⁻¹ | ~285 µM and 285 µM | ~50% | not inhibited | > 500 µM | ~91 µM and 91 µM | uncompetitive inhibition kinetics | mixed inhibition mechanism | > 75% | ~50% | no effect | ~40%
2 | did not inhibit | does not inhibit | does not inhibit | N[C@@H](Cc1ccccc1)C(=O)O [Arogenate incubated with HCl] | – | – | – | – | – | – | – | – | – | – | – | – | –
